Results on two compounds are retold here after patent US8592370B2, “Combination of insulin with triazine derivatives” (Poxel S.A.S., priority 2008, dated 2013).

The test system of test [1] is hyperglycemic and hypoinsulinemic Type 1 rat models (Streptozotocin). In words: Fasting plasma glucose in STZ Type 1 rat model, insulin pellets with or without EMD. The format is in vivo. Here is the method:
(§1) The study was performed in hyperglycemic and hypoinsulinemic Type 1 rat models obtained by injection of high dose of Streptozotocin (STZ). Male Wistar rats (Charles River) were treated with STZ at 62.5 mg/kg IP. Rats were screened for baseline glucose levels three days after STZ injection. The animals with glucose levels below 35-40 mmol/l were excluded from this study. After selection, pellets of insulin were subcutaneously implanted (1+½ implants) at day 3. The release rate for each implant was 2 U per 24 h. In these experimental conditions each rat was infused with 3 U per 24 h of insulin for 40 days approximately (Limplant LINSHIN CANADA). 5,6-dihydro-4-dimethylamino-2-imino-6-methyl-1,3,5-triazine was orally administered at two doses, 75 and 150 mg/kg b.i.d., 10 days after induction of diabetes. Further experimental details are known to the skilled artisan, e.g. by the disclosure of WO 2003/092726, and can be easily modified as a matter of routine.

For test [2] the test system is unchanged. As to the kind of experiment: Oral glucose tolerance test (OGTT), plasma glucose after 36 days of treatment. It counts as in vivo. The following applies: insulin alone. As to the method: as §1
The determination how quickly administered glucose is cleared form the blood was conducted by means of a glucose tolerance test. The glucose was orally given; so the common test was technically an oral glucose tolerance test (OGTT), which is well-known to the skilled artisan. The laboratory animal was fasting for 18 hours before it was administered a glucose solution. Blood was drawn at intervals (cf. Table 3) for measurement of glucose (blood sugar), and additionally insulin levels were measured to detect the degree of IR or deficiency, respectively. For diabetes screening, the most important sample is the 2 hour sample, whose blood sugar value is enhanced at mammals with diminished insulin secretion or IR.

As to `CC1NC(=N)N=C(N(C)C)N1` (stereo not shown) [EMD, 5,6-dihydro-4-dimethylamino-2-imino-6-methyl-1,3,5-triazine], the Fasting plasma glucose in test [1] (EMD 75 mg/kg b.i.d. oral + insulin pellets 3 U per 24 h, day 36) is 18.86 ± 2.77 mmol/L; in test [1] (EMD 150 mg/kg b.i.d. oral + insulin pellets 3 U per 24 h, day 36) it was 14.85 ± 2.03 mmol/L.
For “control + insulin: subcutaneously implanted insulin pellets releasing 3 U per 24 h (Limplant LINSHIN CANADA); insulin alone group”, the OGTT plasma glucose in test [2] (0 min) was found to be 21.46 mmol/L; in test [2] (10 min), 22.73 mmol/L; in test [2] (20 min) it was 26.98 mmol/L; in test [2] (30 min), 27.83 mmol/L; in test [2] (45 min) it was 28.04 mmol/L; in test [2] (60 min) it was 25.59 mmol/L. Moreover, the OGTT plasma glucose in test [2] (90 min) stood at 20.35 mmol/L; in test [2] (120 min) it was 16.91 mmol/L. For the same compound, the Fasting plasma glucose in test [1] (insulin pellets 3 U per 24 h alone, day 0 (before treatment)) came to 33.20 mmol/L; in test [1] (insulin pellets 3 U per 24 h alone, day 8) it was 17.22 mmol/L; in test [1] (insulin pellets 3 U per 24 h alone, day 15) it was 11.25 mmol/L; in test [1] (insulin pellets 3 U per 24 h alone, day 22) it was 16.66 mmol/L; in test [1] (insulin pellets 3 U per 24 h alone, day 36), 21.46 mmol/L; in test [1] (insulin pellets 3 U per 24 h alone, day 36, listed as insulin pellets) it was 21.46 ± 3.1 mmol/L.
